Tested on: obese ob/ob mouse (model of obesity-associated insulin resistance)
Test: Hypolipaemic activity in the obese ob/ob mouse
Format: in vivo
Protocol: The products of the invention were tested in vivo in the obese ob/ob mouse, used as a model of obesity-associated insulin resistance.

CCCN(CCC)c1nc2c(N3CCCCCC3)nc(N3CCOCC3)cc2c(=O)[nH]1 [Example 6, 8-(1-Azepanyl)-2-(dipropylamino)-6-(4-morpholinyl)pyrido[3,4-d]pyrimidin-4(3H)-one] was tested, and the reduction of triglycerides (125 mg/kg per os) was “significantly reduces the triglycerides”.

In the case of CN(C)C(=N)N=C(N)N [metformin], the reduction of triglycerides (250 mg/kg per os) is reported as “the same reduction is obtained”.

— US7361662B2, “Pyridopyrimidinone compounds, method for production thereof and medicaments comprising the same” (Les Laboratoires Servier, priority 2002, dated 2008)
